According to DBAASP:
Values after ≈ are worked out from the molar mass of the structure shown. Values joined by “and” are separate entries in the source; they are usually repeats but may differ in a detail not shown here. Identical values can stand only once.

Assays:
Test in all cases: ≥ marks a high value that may be exact or a test limit, other limits are often not marked, values filed in µg/mL are converted to µM
[1] = test system: Candida albicans ATCC 2002
[2] = test system: Escherichia coli ATCC 25922
[3] = test system: Pseudomonas aeruginosa CMCCB 10104
[4] = test system: Staphylococcus aureus ATCC 25923
[5] = test system: Klebsiella pneumoniae ATCC 13883
[6] = test system: Pseudomonas aeruginosa PAO1
[7] = test system: Staphylococcus aureus USA 300
[8] = test system: Candida albicans ATCC 90028
[9] = test system: Staphylococcus aureus NCTC 8325
Bacillus subtilis = test system: Bacillus subtilis
[10] = test system: Escherichia coli DH5alpha
[11] = test system: Acinetobacter baumannii ATCC 19606
[12] = test system: Salmonella enterica subsp. enterica serovar Typhimurium ATCC 14028
Bacillus subtilis 168 = test system: Bacillus subtilis 168
Micrococcus luteus = test system: Micrococcus luteus
Staphylococcus aureus = test system: Staphylococcus aureus

## CC(C)[C@H](N)C(=O)N[C@H](C(=O)N[C@@H](CCCCN)C(=O)N[C@@H](Cc1ccccc1)C(=O)N[C@@H](CO)C(=O)N[C@@H](Cc1ccc(O)cc1)C(=O)N[C@@H](CCCN=C(N)N)C(=O)N[C@@H](CCCCN)C(=O)NCC(=O)N[C@@H](CO)C(=O)N1CCC[C@H]1C(=O)N[C@@H](C)C(=O)N1CCC[C@H]1C(=O)N[C@@H](CCC(N)=O)C(=O)N[C@@H](CCCCN)C(=O)N[C@@H](CC(N)=O)C(=O)O)C(C)C [VVKFSYRKGSPAPQKN]
[1]
  MIC: ≥ 111 µM
[2]
  MIC: > 111 µM
[3]
  MIC: ≥ 111 µM
[4]
  MIC: > 111 µM

## CC(C)C[C@H](NC(=O)[C@H](C)NC(=O)[C@H](CCCCN)NC(=O)CNC(=O)[C@H](CC(C)C)NC(=O)[C@H](CC(C)C)NC(=O)[C@H](CO)NC(=O)[C@H](CC(C)C)NC(=O)[C@H](CC(C)C)NC(=O)[C@H](CO)NC(=O)[C@H](CC(C)C)NC(=O)[C@H](CC(C)C)NC(=O)CN)C(N)=O [GLLSLLSLLGKAL]
[2]
  MIC: 3.1 µM (≈ 4.02 µg/mL)
[5]
  MIC: 3.1 µM (≈ 4.02 µg/mL)
[6]
  MIC: > 25 µM
[7]
  MIC: 0.78 µM (≈ 1.01 µg/mL)

## CC[C@H](C)[C@@H]1NC(=O)[C@H](C)NC(=O)[C@@H](NC(=O)[C@H](Cc2ccccc2)NC(=O)[C@@H](NC(=O)[C@H](CCCCN)NC(=O)[C@@H]2CCCN2C(=O)[C@H](CC(C)C)NC(=O)[C@H](Cc2ccccc2)NC(=O)[C@H](CC(N)=O)NC(=O)[C@H](C)NC(=O)[C@H](C)NC(=O)[C@H](CC(C)C)NC(=O)CNC(=O)[C@H](C)NC(=O)[C@@H](NC(=O)[C@H](CC(C)C)NC(=O)[C@@H]2CCCN2C(=O)[C@H](CC(C)C)NC(=O)[C@@H](N)Cc2ccccc2)[C@@H](C)CC)[C@@H](C)CC)CSSC[C@@H](C(=O)O)NC(=O)[C@H](CCCCN)NC(=O)[C@H](CCCCN)NC(=O)[C@H]([C@@H](C)O)NC1=O [FLPLIAGLAANFLPKIFCAITKKC]
[8]
  MIC: 6 µM (≈ 15.5 µg/mL)
[2]
  MIC: 26 µM (≈ 67.4 µg/mL)
[9]
  MIC: 9 µM (≈ 23.3 µg/mL)

## CC(C)C[C@H](NC(=O)[C@H](CC(C)C)NC(=O)[C@H](CCCCN)NC(=O)CNC(=O)[C@H](CC(C)C)NC(=O)[C@H](CC(C)C)NC(=O)[C@H](CO)NC(=O)[C@H](CC(C)C)NC(=O)[C@H](C)NC(=O)[C@H](CO)NC(=O)[C@H](CC(C)C)NC(=O)[C@H](CC(C)C)NC(=O)CN)C(N)=O [GLLSALSLLGKLL]
[2]
  MIC: 3.1 µM (≈ 4.02 µg/mL)
[5]
  MIC: 3.1 µM (≈ 4.02 µg/mL)
[6]
  MIC: > 25 µM
[7]
  MIC: 0.78 µM (≈ 1.01 µg/mL)

## CC[C@H](C)[C@H](N)C(=O)N[C@@H](CC(C)C)C(=O)N1CCC[C@H]1C(=O)N[C@@H](Cc1ccccc1)C(=O)N[C@H](C(=O)N[C@@H](C)C(=O)NCC(=O)N[C@H](C(=O)N[C@@H](C)C(=O)N[C@@H](C)C(=O)N[C@@H](CCC(=O)O)C(=O)N[C@@H](CCSC)C(=O)N[C@@H](CCSC)C(=O)N[C@@H](CCCCN)C(=O)N[C@@H](Cc1cnc[nH]1)C(=O)N[C@H](C(=O)N[C@@H](Cc1ccc(O)cc1)C(=O)N[C@H]1CSSC[C@@H](C(=O)O)NC(=O)[C@H](CCCCN)NC(=O)[C@H](CCCCN)NC(=O)[C@H](CO)NC(=O)[C@H](C)NC(=O)[C@H](C)NC1=O)C(C)C)C(C)C)C(C)C [ILPFVAGVAAEMMKHVYCAASKKC]
[1]
  MIC: 2.96 µM (≈ 7.59 µg/mL)
[2]
  MIC: 5.92 µM (≈ 15.2 µg/mL)
[3]
  MIC: 11.8 µM (≈ 30.4 µg/mL)
[4]
  MIC: 5.92 µM (≈ 15.2 µg/mL)

## CC[C@H](C)[C@@H]1NC(=O)CNC(=O)[C@H](Cc2c[nH]c3ccccc23)NC(=O)[C@@H]2CSSC[C@H](NC(=O)[C@H](C)N)C(=O)N[C@@H](CCC(N)=O)C(=O)N[C@@H](Cc3ccccc3)C(=O)N[C@@H](Cc3c[nH]c4ccccc34)C(=O)N[C@@H](CO)C(=O)N[C@H]3CSSC[C@H](NC(=O)[C@H](Cc4ccc(O)cc4)NC(=O)[C@H](CCCCN)NC(=O)[C@H](Cc4ccc(O)cc4)NC(=O)[C@H](CCC(N)=O)NC1=O)C(=O)N[C@@H](CCC(N)=O)C(=O)N[C@H](C(=O)N[C@@H](CCC(N)=O)C(=O)O)CSSC[C@H](NC(=O)[C@H](CO)NC(=O)[C@H](CO)NC(=O)[C@H](CC(N)=O)NC3=O)C(=O)N[C@@H]([C@@H](C)CC)C(=O)N[C@@H](CO)C(=O)N[C@@H](CCCN=C(N)N)C(=O)NCC(=O)N[C@@H](Cc1ccc(O)cc1)C(=O)N[C@@H](CCCN=C(N)N)C(=O)N[C@@H](CCC(N)=O)C(=O)NCC(=O)N[C@@H](Cc1ccc(O)cc1)C(=O)N2 [ACQFWSCNSSCISRGYRQGYCWGIQYKYCQCQ]
Bacillus subtilis
  MIC: 13.1 µM (≈ 49.9 µg/mL)
[10]
  MIC: 13.1 µM (≈ 49.9 µg/mL)
[5]
  MIC: 13.1 µM (≈ 49.9 µg/mL)
[4]
  MIC: > 13.1 µM

## CC[C@H](C)[C@H](NC(=O)[C@H](C)NC(=O)[C@@H]1CCCN1C(=O)[C@H](CC(C)C)NC(=O)[C@@H](N)Cc1ccccc1)C(=O)N[C@@H](C)C(=O)NCC(=O)N[C@H](C(=O)N[C@@H](C)C(=O)N[C@@H](C)C(=O)N[C@@H](CCCCN)C(=O)N[C@@H](Cc1ccccc1)C(=O)N[C@@H](CC(C)C)C(=O)N1CCC[C@H]1C(=O)N[C@@H](CCCCN)C(=O)N[C@H](C(=O)N[C@@H](Cc1ccccc1)C(=O)N[C@H]1CSSC[C@@H](C(=O)O)NC(=O)[C@H](CCCCN)NC(=O)[C@H](CCCCN)NC(=O)[C@H](CO)NC(=O)[C@H]([C@@H](C)CC)NC(=O)[C@H](C)NC1=O)[C@@H](C)CC)C(C)C [FLPAIAGVAAKFLPKIFCAISKKC]
[8]
  MIC: 7 µM (≈ 17.7 µg/mL)
[2]
  MIC: 7 µM (≈ 17.7 µg/mL)
[9]
  MIC: 3 µM (≈ 7.61 µg/mL)

## CC[C@H](C)[C@@H]1NC(=O)[C@H](CCCCN)NC(=O)[C@@H](NC(=O)[C@H](C)NC(=O)[C@@H](NC(=O)[C@H](CC(C)C)NC(=O)[C@H](CC(=O)O)NC(=O)[C@@H](NC(=O)CNC(=O)[C@H](CC(C)C)NC(=O)[C@H](CCCCN)NC(=O)[C@@H](NC(=O)[C@H](CC(C)C)NC(=O)[C@H](CC(=O)O)NC(=O)[C@H](CCCCN)NC(=O)CNC(=O)[C@H](CC(C)C)NC(=O)CNC(=O)[C@H](CCCCN)NC(=O)[C@H](CO)NC(=O)[C@H](C)NC(=O)[C@H](Cc2ccccc2)NC(=O)[C@H](CCCCN)NC(=O)[C@H](C)NC(=O)[C@H](C)NC(=O)CNC(=O)[C@H](CCCN=C(N)N)NC(=O)[C@H](CC(C)C)NC(=O)[C@@H](NC(=O)[C@H](CO)NC(=O)[C@H](Cc2ccccc2)NC(=O)[C@H](CC(C)C)NC(=O)CN)[C@@H](C)CC)[C@@H](C)O)C(C)C)C(C)C)CSSC[C@@H](C(=O)O)NC(=O)[C@H](CCC(N)=O)NC(=O)[C@H](CCCCN)NC(=O)[C@H](CO)NC1=O [GLFSILRGAAKFASKGLGKDLTKLGVDLVACKISKQC]
[8]
  MIC: 29 µM (≈ 111 µg/mL)
[2]
  MIC: 1 µM (≈ 3.84 µg/mL)
[9]
  MIC: 1 µM (≈ 3.84 µg/mL)

## CC(C)C[C@H](NC(=O)[C@H](CC(C)C)NC(=O)[C@H](CCCCN)NC(=O)[C@H](CC(C)C)NC(=O)CNC(=O)[C@H](CC(C)C)NC(=O)[C@H](CO)NC(=O)[C@H](CC(C)C)NC(=O)[C@H](CC(C)C)NC(=O)[C@H](CC(C)C)NC(=O)[C@H](CO)NC(=O)[C@H](CC(C)C)NC(=O)[C@@H](N)CCCCN)C(N)=O [KLSLLLSLGLKLL]
[2]
  MIC: > 25 µM
[5]
  MIC: 25 µM (≈ 35.2 µg/mL)
[6]
  MIC: > 25 µM
[7]
  MIC: 1.6 µM (≈ 2.26 µg/mL)

## CC(C)C[C@H](NC(=O)[C@H](CCCCN)NC(=O)[C@H](CCCCN)NC(=O)[C@H](C)NC(=O)[C@H](Cc1c[nH]c2ccccc12)NC(=O)CNC(=O)[C@H](CCCCN)NC(=O)[C@@H](N)CCCCN)C(=O)N[C@@H](C)C(=O)N[C@@H](Cc1ccccc1)C(=O)N[C@@H](C)C(=O)N[C@@H](Cc1ccccc1)C(=O)NCC(=O)N[C@@H](CCCCN)C(=O)N[C@@H](CCCCN)C(=O)O [KKGWAKKLAFAFGKK]
[11]
  MIC: > 30 µM
[2]
  MIC: 7.3 µM and 8.9 µM
[5]
  MIC: 30 µM (≈ 51.2 µg/mL)
[6]
  MIC: 20.7 µM and 23.7 µM
[12]
  MIC: 22.2 µM (≈ 37.9 µg/mL)
[4]
  MIC: > 30 µM

## CC[C@H](C)[C@H](NC(=O)[C@H](Cc1ccccc1)NC(=O)[C@H](CCCCN)NC(=O)[C@H](CCCCN)NC(=O)[C@H](CCC(=O)O)NC(=O)[C@H](CC(N)=O)NC(=O)[C@H](Cc1ccc(O)cc1)NC(=O)[C@H](CCCCN)NC(=O)[C@H](CC(N)=O)NC(=O)[C@H](CC(C)C)NC(=O)[C@H](CCC(=O)O)NC(=O)[C@H](CC(N)=O)NC(=O)[C@H](CC(C)C)NC(=O)[C@H](Cc1ccccc1)NC(=O)[C@H](CO)NC(=O)[C@@H](N)[C@@H](C)O)C(=O)O [TSFLNELNKYNEKKFI]
Bacillus subtilis 168
  MIC: 15.7 µM (≈ 31.2 µg/mL)
[2]
  MIC: 31.4 µM (≈ 62.5 µg/mL)
Micrococcus luteus
  MIC: 31.4 µM (≈ 62.5 µg/mL)
Staphylococcus aureus
  MIC: 4.17 µM (≈ 8.3 µg/mL)

## CC[C@H](C)[C@H](NC(=O)[C@H](CCCCN)NC(=O)[C@H](CCC(N)=O)NC(=O)[C@@H](NC(=O)[C@@H](NC(=O)[C@H](CCCCN)NC(=O)[C@H](CCCN=C(N)N)NC(=O)[C@H](Cc1ccccc1)NC(=O)CN)[C@@H](C)CC)C(C)C)C(=O)N[C@@H](CCCN=C(N)N)C(=O)N[C@@H](CC(=O)O)C(=O)N[C@@H](Cc1ccccc1)C(=O)N[C@@H](CC(C)C)C(=O)N[C@@H](CCCN=C(N)N)C(=O)N[C@@H](CC(N)=O)C(=O)N[C@@H](CC(C)C)C(=O)N[C@H](C(N)=O)C(C)C [GFRKIVQKIRDFLRNLV]
[2]
  MIC: 4.4 µM (≈ 9.25 µg/mL)
[5]
  MIC: 3.1 µM (≈ 6.51 µg/mL)
[6]
  MIC: > 50 µM
[7]
  MIC: 3.1 µM (≈ 6.51 µg/mL)
